In paper PMC10879502, “Linking ATP and allosteric sites to achieve superadditive binding with bivalent EGFR kinase inhibitors” (Communications Chemistry, 2024):

Columns and labels:
Experiment in all cases: KINOMEscan
Format in all cases: binding
Conditions in all cases: 1 μM
ANKK1 = ANKK1 (Homo sapiens, UniProt Q8NFD2)
PYK2 = PYK2 (Homo sapiens, UniProt Q14289)
MAPKAPK2 = target: T1, MAPKAPK2 (Homo sapiens, UniProt P49137)
T1 construct: purchased Eurofins DiscoverX Corporation

PIK3CB = PIK3CB (Homo sapiens, UniProt P42338)
HIPK1 = target: T2, HIPK1 (Homo sapiens, UniProt Q86Z02)
T2 construct: purchased Eurofins DiscoverX Corporation

PIP5K1C = PIP5K1C (Homo sapiens, UniProt O60331)
MELK = target: T3, MELK (Homo sapiens, UniProt Q14680)
T3 construct: purchased Eurofins DiscoverX Corporation

RIOK2 = RIOK2 (Homo sapiens, UniProt Q9BVS4)
RIOK3 = RIOK3 (Homo sapiens, UniProt O14730)
EPHA5 = EPHA5 (Homo sapiens, UniProt P54756)
CAMKK2 = target: T4, CAMKK2 (Homo sapiens, UniProt Q96RR4)
T4 construct: purchased Eurofins DiscoverX Corporation (KINOMEscan)

HIPK3 = target: T5, HIPK3 (Homo sapiens, UniProt Q9H422)
T5 construct: purchased Eurofins DiscoverX Corporation

GCN2(Kin.Dom.2+S808G) = target: T6, GCN2(Kin.Dom.2+S808G) (Homo sapiens, UniProt Q9P2K8, S808G)
T6 construct: GCN2(Kin.Dom.2+S808G); purchased Eurofins DiscoverX Corporation

NEK2 = target: T7, NEK2 (Homo sapiens, UniProt P51955)
T7 construct: purchased Eurofins DiscoverX Corporation

MINK = target: T8, MINK (Homo sapiens, UniProt Q8N4C8)
T8 construct: purchased Eurofins DiscoverX Corporation

ICK = target: T9, ICK (Homo sapiens, UniProt Q9UPZ9)
T9 construct: purchased Eurofins DiscoverX (KINOMEscan)

YES = YES (Homo sapiens, UniProt P07947)
MEK3 = target: T10, MEK3 (Homo sapiens, UniProt P46734)
T10 construct: purchased Eurofins DiscoverX Corporation

NDR1 = target: T11, NDR1 (Homo sapiens, UniProt Q15208)
T11 construct: purchased Eurofins DiscoverX Corporation

CDK11 = CDK11 (Homo sapiens, UniProt Q9BWU1)
CDKL5 = CDKL5 (Homo sapiens, UniProt O76039)
FGFR1 = FGFR1 (Homo sapiens, UniProt P11362)
AAK1 = target: T12, AAK1 (Homo sapiens, UniProt Q2M2I8)
T12 construct: purchased Eurofins DiscoverX Corporation

ULK2 = ULK2 (Homo sapiens, UniProt Q8IYT8)
GRK3 = target: T13, GRK3 (Homo sapiens, UniProt P35626)
T13 construct: purchased Eurofins DiscoverX Corporation

ERK5 = ERK5 (Homo sapiens, UniProt Q13164)
[1] = target: T14, ABL1(T315I)-phosphorylated (Homo sapiens, UniProt P00519, T315I)
T14 construct: purchased Eurofins DiscoverX Corporation

[2] = target: T15, ABL1(F317I)-phosphorylated (Homo sapiens, UniProt P00519, F317I)
T15 construct: purchased Eurofins DiscoverX Corporation

ULK1 = ULK1 (Homo sapiens, UniProt O75385)
YSK4 = YSK4 (Homo sapiens, UniProt Q56UN5)
CDK9 = CDK9 (Homo sapiens, UniProt P50750)
FLT3(ITD) = tested on: FLT3(ITD)
[3] = target: T16, ABL1(Y253F)-phosphorylated (Homo sapiens, UniProt P00519, Y253F)
T16 construct: purchased Eurofins DiscoverX Corporation

PCTK2 = PCTK2 (Homo sapiens, UniProt Q00537)
YANK2 = YANK2 (Homo sapiens, UniProt Q9NY57)
FLT3(D835V) = FLT3(D835V) (Homo sapiens, UniProt P36888, D835V)
ERK3 = ERK3 (Homo sapiens, UniProt Q16659)
VPS34 = VPS34 (Homo sapiens, UniProt Q8NEB9)
PRKCD = PRKCD (Homo sapiens, UniProt Q05655)
MAP4K3 = target: T17, MAP4K3 (Homo sapiens, UniProt Q8IVH8)
T17 construct: purchased Eurofins DiscoverX Corporation

NEK9 = NEK9 (Homo sapiens, UniProt Q8TD19)
CDK2 = CDK2 (Homo sapiens, UniProt P24941)

T11 sequence (Q15208 whole entry): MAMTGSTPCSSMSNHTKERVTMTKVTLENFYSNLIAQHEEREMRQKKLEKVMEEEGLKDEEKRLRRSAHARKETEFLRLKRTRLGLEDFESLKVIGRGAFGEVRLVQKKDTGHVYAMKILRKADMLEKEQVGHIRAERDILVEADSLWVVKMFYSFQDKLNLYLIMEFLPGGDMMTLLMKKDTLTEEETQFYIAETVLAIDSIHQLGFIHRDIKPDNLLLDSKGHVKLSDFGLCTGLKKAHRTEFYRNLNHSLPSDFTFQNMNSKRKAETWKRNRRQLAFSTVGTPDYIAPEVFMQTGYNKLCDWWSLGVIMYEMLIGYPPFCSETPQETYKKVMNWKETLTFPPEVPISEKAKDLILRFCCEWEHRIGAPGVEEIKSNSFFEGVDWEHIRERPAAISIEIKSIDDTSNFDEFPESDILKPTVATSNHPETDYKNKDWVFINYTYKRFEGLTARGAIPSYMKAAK
Sequence of PIP5K1C (O60331 whole entry): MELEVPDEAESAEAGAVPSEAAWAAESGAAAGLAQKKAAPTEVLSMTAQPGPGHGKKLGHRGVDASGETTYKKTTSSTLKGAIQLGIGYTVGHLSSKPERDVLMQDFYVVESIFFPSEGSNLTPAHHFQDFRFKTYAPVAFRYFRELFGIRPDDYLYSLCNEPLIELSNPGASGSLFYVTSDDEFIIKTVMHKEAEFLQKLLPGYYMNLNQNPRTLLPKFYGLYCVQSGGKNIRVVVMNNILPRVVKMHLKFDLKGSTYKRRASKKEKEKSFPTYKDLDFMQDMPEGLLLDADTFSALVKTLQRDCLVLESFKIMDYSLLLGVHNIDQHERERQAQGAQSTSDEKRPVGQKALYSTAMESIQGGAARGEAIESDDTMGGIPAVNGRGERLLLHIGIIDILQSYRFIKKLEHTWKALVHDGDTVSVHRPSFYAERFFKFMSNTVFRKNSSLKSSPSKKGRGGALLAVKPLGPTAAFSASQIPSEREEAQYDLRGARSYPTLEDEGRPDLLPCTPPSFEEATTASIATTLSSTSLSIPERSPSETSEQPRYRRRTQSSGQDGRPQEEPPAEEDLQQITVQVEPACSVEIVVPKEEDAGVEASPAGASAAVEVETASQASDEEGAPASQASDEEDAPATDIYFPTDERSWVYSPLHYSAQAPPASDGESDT
Sequence of YSK4 (Q56UN5 whole entry): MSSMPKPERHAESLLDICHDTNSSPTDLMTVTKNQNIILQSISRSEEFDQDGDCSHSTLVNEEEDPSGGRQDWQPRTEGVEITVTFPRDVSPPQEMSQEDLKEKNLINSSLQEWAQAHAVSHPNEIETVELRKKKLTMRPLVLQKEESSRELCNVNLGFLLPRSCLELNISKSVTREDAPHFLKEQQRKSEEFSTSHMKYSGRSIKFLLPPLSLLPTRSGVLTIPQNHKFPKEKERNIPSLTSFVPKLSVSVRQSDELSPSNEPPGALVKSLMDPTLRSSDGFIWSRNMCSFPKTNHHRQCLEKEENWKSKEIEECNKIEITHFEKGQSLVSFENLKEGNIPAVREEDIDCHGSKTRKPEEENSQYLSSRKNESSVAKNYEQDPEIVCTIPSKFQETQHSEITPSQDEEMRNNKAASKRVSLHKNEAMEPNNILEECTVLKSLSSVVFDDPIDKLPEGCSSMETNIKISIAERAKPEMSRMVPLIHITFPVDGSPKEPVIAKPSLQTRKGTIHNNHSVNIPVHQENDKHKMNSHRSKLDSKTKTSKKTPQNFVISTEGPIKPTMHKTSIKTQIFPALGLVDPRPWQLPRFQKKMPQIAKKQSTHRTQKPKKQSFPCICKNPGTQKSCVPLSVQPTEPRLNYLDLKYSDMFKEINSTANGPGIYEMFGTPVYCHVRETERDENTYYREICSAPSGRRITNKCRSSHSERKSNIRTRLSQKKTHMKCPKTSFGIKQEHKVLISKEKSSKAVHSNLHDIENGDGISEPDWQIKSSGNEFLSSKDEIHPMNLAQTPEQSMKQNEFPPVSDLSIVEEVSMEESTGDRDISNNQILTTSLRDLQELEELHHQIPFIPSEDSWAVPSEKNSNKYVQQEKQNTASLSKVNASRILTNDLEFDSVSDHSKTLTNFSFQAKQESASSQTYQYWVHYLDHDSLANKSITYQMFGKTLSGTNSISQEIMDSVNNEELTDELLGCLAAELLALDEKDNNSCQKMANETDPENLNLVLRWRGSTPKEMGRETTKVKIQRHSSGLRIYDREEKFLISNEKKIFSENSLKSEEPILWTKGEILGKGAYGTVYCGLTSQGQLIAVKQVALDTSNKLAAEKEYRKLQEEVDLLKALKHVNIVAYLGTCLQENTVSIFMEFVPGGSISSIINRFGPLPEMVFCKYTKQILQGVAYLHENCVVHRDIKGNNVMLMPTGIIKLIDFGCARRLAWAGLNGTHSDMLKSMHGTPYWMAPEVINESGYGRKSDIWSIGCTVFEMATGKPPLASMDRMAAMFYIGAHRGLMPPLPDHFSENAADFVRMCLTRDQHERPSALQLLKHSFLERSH
Sequence of YANK2 (Q9NY57 whole entry): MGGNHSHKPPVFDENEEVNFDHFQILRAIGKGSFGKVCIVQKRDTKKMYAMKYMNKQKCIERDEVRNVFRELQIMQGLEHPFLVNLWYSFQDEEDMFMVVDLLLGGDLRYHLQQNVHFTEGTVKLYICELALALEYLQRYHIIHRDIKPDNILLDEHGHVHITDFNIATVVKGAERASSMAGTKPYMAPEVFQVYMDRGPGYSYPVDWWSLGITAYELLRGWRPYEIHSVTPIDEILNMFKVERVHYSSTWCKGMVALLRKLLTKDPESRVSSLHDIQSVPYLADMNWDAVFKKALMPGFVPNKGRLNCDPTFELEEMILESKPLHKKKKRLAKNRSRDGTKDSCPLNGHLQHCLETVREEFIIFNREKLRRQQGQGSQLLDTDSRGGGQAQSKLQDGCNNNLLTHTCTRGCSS
Sequence of YES (P07947 whole entry): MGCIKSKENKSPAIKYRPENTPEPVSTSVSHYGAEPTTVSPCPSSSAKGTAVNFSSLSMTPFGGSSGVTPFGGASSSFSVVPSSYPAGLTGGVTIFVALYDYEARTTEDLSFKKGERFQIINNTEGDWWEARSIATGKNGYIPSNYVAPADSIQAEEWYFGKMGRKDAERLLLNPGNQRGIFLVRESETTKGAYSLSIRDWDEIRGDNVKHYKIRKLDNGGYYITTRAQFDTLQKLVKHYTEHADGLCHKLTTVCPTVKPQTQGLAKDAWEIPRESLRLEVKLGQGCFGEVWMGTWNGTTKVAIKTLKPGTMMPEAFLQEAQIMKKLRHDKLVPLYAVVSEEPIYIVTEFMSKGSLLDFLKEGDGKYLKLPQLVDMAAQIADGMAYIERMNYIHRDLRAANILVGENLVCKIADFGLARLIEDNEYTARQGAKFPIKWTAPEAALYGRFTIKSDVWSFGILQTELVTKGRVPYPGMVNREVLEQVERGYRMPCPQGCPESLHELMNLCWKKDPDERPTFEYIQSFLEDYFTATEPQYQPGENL
Sequence of RIOK3 (O14730 whole entry): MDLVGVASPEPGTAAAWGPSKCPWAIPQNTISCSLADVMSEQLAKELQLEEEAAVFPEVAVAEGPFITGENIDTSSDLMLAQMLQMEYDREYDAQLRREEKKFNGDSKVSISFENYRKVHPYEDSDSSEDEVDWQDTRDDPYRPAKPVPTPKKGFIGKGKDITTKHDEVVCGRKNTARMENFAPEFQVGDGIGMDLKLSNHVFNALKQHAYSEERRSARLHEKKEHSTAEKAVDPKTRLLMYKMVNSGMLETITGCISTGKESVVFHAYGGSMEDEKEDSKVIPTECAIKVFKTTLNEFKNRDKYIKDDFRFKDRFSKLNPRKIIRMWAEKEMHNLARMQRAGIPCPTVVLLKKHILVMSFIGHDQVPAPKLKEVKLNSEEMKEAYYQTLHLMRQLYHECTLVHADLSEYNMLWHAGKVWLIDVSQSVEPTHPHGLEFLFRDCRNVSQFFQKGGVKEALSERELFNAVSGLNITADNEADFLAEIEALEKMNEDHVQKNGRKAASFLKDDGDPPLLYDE
Sequence of CDK11 (Q9BWU1 whole entry): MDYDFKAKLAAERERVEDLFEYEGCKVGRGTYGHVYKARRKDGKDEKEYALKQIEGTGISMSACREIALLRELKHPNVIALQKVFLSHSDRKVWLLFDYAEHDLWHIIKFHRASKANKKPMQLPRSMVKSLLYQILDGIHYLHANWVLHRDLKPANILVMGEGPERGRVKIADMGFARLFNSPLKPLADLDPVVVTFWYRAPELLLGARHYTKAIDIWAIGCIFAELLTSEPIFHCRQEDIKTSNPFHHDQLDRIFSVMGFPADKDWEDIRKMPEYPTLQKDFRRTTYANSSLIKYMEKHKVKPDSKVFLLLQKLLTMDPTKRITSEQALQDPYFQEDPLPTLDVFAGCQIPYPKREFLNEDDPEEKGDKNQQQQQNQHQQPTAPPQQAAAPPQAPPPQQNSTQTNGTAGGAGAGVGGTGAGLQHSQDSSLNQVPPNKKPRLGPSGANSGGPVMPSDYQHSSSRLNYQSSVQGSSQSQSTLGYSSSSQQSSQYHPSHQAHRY
T6 sequence (Q9P2K8 590-1001 S808G limits assumed): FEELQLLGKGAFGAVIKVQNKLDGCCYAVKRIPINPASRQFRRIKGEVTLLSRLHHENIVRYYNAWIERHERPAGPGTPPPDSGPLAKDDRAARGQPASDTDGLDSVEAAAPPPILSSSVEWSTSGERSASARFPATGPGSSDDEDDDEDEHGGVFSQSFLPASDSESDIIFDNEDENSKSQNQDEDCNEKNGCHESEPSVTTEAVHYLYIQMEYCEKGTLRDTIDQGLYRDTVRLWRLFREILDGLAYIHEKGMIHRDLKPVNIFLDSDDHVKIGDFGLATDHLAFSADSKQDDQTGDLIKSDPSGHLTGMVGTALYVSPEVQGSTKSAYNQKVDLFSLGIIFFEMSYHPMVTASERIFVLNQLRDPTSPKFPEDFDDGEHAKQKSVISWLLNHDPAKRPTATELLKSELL

## C=CC(=O)Nc1ccc(OC)c(Nc2cc(-c3[nH]c(CC)nc3-c3cccc(NC(=O)c4cccc5c4NC(=O)c4ccccc4N5)c3)ccn2)c1 [Compound 4]
ANKK1
  POC: 87% of control
PYK2
  POC: 100% of control
MAPKAPK2
  POC: 100% of control
PIK3CB
  POC: 90% of control
HIPK1
  POC: 51% of control
PIP5K1C
  POC: 78% of control
MELK
  POC: 100% of control
RIOK2
  POC: 83% of control
RIOK3
  POC: 100% of control
EPHA5
  POC: 100% of control
CAMKK2
  POC: 95% of control
HIPK3
  POC: 100% of control
GCN2(Kin.Dom.2+S808G)
  POC: 100% of control
NEK2
  POC: 98% of control
MINK
  POC: 10% of control
ICK
  POC: 100% of control
YES
  POC: 20% of control
MEK3
  POC: 100% of control
NDR1
  POC: 73% of control
CDK11
  POC: 100% of control
CDKL5
  POC: 98% of control
FGFR1
  POC: 86% of control
AAK1
  POC: 100% of control
ULK2
  POC: 80% of control
GRK3
  POC: 100% of control
ERK5
  POC: 100% of control
[1]
  POC: 100% of control
[2]
  POC: 84% of control
ULK1
  POC: 100% of control
YSK4
  POC: 88% of control
CDK9
  POC: 100% of control
FLT3(ITD)
  POC: 100% of control
[3]
  POC: 72% of control
PCTK2
  POC: 100% of control
YANK2
  POC: 63% of control
FLT3(D835V)
  POC: 100% of control
ERK3
  POC: 100% of control
VPS34
  POC: 84% of control
PRKCD
  POC: 55% of control
MAP4K3
  POC: 9.5% of control
NEK9
  POC: 83% of control
CDK2
  POC: 95% of control
